The test system of series [1] is Patients with Major Depressive Disorder (MDD). In words: Case Study 1: outpatient treatment of chronic suicidal ideation and behavior. The format is in vivo, human. As for the experimental part: Treatment of Chronic Suicidal Ideation and Behavior in Patients with Major Depressive Disorder (MDD). A married person and parent of three, presented to the outpatient clinic Jul. 16, 2019 to establish care with a new psychiatrist for management of their depression, mood swings, and persistent suicidal ideations. They reported that their current medications, bupropion XL 300 mg q daily, valproic acid 500 mg BID, quetiapine 200 mg daily, and venlafaxine XR 150 mg BID, modafinil 200 mg q AM and noon, buspirone 10 mg TID are not helping. They had been experiencing acute daily changes in mood consisting of unhappiness, irritability, and anger with lead to arguments with their spouse and family. They had been suffering from persistent depression, self-harm, and suicidal impulses. They had three previous suicide attempts resulting in hospitalization, the most recent being six years prior. • During the Initial Psychiatric Evaluation, they were alert and oriented to person, place, time, and situation. […]

Series [2] shares this test system. Kind of series: Case 2: outpatient treatment of persistent suicidal ideation. It is filed as in vivo, human. From the text:
Treatment of Chronic Suicidal Ideation and Behavior in Patients with Major Depressive Disorder (MDD).
A person presented to the outpatient psychiatric clinic accompanied by their spouse and child after being referred by a friend. Their condition had not improved over the past several years despite ongoing psychiatric treatment including in-patient hospitalizations and multiple medication failures. They reported they had been, “feeling the stress”, experiencing racing and ruminating thoughts, difficulty with conversation, and panic. They expressed persistent suicidal ideation. They denied current or past self-injurious behavior.
• Sensorium: Alert and oriented to person, place, time, situation • Appearance: Casually dressed, well kempt, appeared older than stated age, thin to normal body habitus • Affect: Constricted, tearful at times • Mood: Depressed • Speech: Normal rate, tone, and rhythm. Louder when irritable and argumentative • Thought Content: Passive suicidal ideation, no delusions. • Thought Process: Coherent, logical, mildly circumstantial. • Perception: No auditory or visual hallucinations • Memory: Intact • Abstract Thinking: Intact • Judgment: Fair to good • Insight: Good
During their initial psychiatric evaluation, they were diagnosed with Bipolar Disorder, Unspecified; Rule out Amphetamine-induced psychosis due to their intermittent paranoia, impulsivity, and agitation. […]

As for `CCc1nn(CCCN2CCN(c3cccc(Cl)c3)CC2)c(=O)n1CCOc1ccccc1` [nefazodone, 1-(3-[4-(3-chlorophenyl)piperazin-1-yl]propyl)-3-ethyl-4-(2-phenoxyethyl)-1H-1,2,4-triazol-5 (4H)-one], in series [1] (Nov. 11, 2019, treatment interrupted), the “suicidal ideations after forgetting and running out of nefazodone” value was “more suicidal ideations”. In series [1] (suspected to be caused by increase in nefazodone to 200 mg BID), the side effect reported result was “drowsiness”. The “suicidal thoughts after restarting nefazodone” value in series [2] (nefazodone restarted and slightly increased, close follow up) is “rapid disappearance”. Besides, the “suicidal ideation after stopping nefazodone” value in series [2] (nefazodone stopped for several weeks, after eight months of stability) is “having suicidal ideation”.
